The molecules below were run on Aedes aegypti mosquitoes, insecticide-susceptible Orlando strain (assay: not given). Conditions: screened at 100 μg/cm^2; 1 h; strain not given.
Type: in vivo
Description: The tubes as shown were held horizontally on the bench.
For assessing behavioral repellency (FIG. 1), Aedes aegypti mosquitoes were used from the insecticide-susceptible Orlando strain and the pyrethroid-resistant Puerto Rico strain. Sixteen female mosquitoes were transferred to a glass tube (12.5 cm long, 2.5 cm outer diameter) with the ends covered with netting. Each compound was dissolved in 1 mL of acetone and serial dilutions ranging from 30-0.01 μg/ml were made. Circular filter papers (5 cm^2) were saturated with 50 μL of each concentration and allowed 10 min for solvent evaporation. The filter papers were then placed in clear conical polypropylene caps and fixed to the end of the glass tubes. The netting prevented mosquito contact with the filter paper. The tubes were then aligned with a mark denoting the midline and the proportion of mosquitoes on the chemically treated side was scored for up to 60 min. At the end of the test, the tube was placed in a cage and the ability of the mosquitoes to fly out of the tube was assessed for 30 min. […] This post-test evaluated whether any non-responding mosquitoes (not repelled) resulted from intoxication or disorientation from the test chemical. For assessment of lethality, insects were held for 24 hr under constant exposure in glass tubes having treated filter papers.
Compounds were first screened at 100 μg/cm^2 for repellency and 24 h mortality.

First: O=C(Nc1c(Cl)cc(C(F)(F)F)cc1Cl)C(F)(F)F [GMR149]
Second: O=S(=O)(Nc1c(Cl)cc(C(F)(F)F)cc1Cl)C(F)(F)F [MTFI-5-10A]
The “1 h % Repellency, 100 μg/cm^2” value of the first is higher: 44% for the first, 0% for the second.

Compared with `CC(C)(C)OC(=O)N(C(=O)C(F)(F)F)c1c(Cl)cc(C(F)(F)F)cc1Cl` [GMR151], `Cc1ccccc1C(=O)Nc1cc(C(F)(F)F)cc(C(F)(F)F)c1` [MTFI-3-1E] is lower in “1 h % Repellency, 100 μg/cm^2” value: 32% for the first, 6% for the second.

Compared with `CC(=O)N(C(C)=O)c1cccc(OC(F)(F)F)c1` [GMR159], `CC(=O)Nc1ccccc1C(F)(F)F` [MTFI-3-2A] is higher in “1 h % Repellency, 100 μg/cm^2” value: −26% for the first, 80% for the second.

First: C#C[C@@H]1[C@@H](C(=O)Nc2cc(F)cc(F)c2)C1(C)C [GMR180]
Second: O=C(Nc1cc(F)c(F)c(F)c1F)C(F)F [MTFI-5-4A]
The “1 h % Repellency, 100 μg/cm^2” value of the first is lower: −24% for the first, 68% for the second.

Compared with `O=C(Nc1ccc(F)cc1)C(F)(F)Sc1ccc(F)cc1` [GMR196], `CC(SC(F)(F)F)C(=O)Nc1ccc(F)cc1` (centres unmarked) [GMR197] is higher in “1 h % Repellency, 100 μg/cm^2” value: 18% for the first, 30% for the second.

Compared with `O=C(CCSC(F)(F)F)Nc1ccc(F)cc1` [GMR198], `C=CCCC(=O)Nc1ccccc1C(F)(F)F` [MTFI-5-5D] is higher in “1 h % Repellency, 100 μg/cm^2” value: 8% for the first, 56% for the second.

Compared with `O=C(c1c(F)c(F)c(F)c(F)c1F)n1nnc2ccccc21` [MT2018-0314-01], `O=C(Cc1c(F)c(F)c(F)c(F)c1F)n1nnc2ccccc21` [MT2018-0314-02] is lower in “1 h % Repellency, 100 μg/cm^2” value: 32% for the first, 6% for the second.

Compared with `O=C(Nc1cccc(C(F)(F)F)c1)c1c(F)c(F)c(F)c(F)c1F` [MT2018-0316-01], `O=C(Cc1c(F)c(F)c(F)c(F)c1F)Nc1cccc(C(F)(F)F)c1` [MT2018-0316-02] is lower in “1 h % Repellency, 100 μg/cm^2” value: 24% for the first, 6% for the second.

First: O=C(Nc1ccccc1C(F)(F)F)C(F)(F)C(F)(F)F [MTFI-2-1B]
Second: O=C(CBr)Nc1ccccc1C(F)(F)F [MTFI-5-5E]
The “1 h % Repellency, 100 μg/cm^2” value of the first is lower: 38% for the first, 62% for the second.

Going from `CCCCCCCCCCC(=O)Nc1ccccc1C(F)(F)F` [MTFI-2-1F] to `CCCCC(=O)Nc1ccccc1CCCC` [MTFI-5-8A], the “1 h % Repellency, 100 μg/cm^2” value rises from 6% to 38%.

Going from `O=C(Nc1cc(F)c(F)c(F)c1F)C(F)(F)C(F)(F)C(F)(F)F` [MTFI-5-4E] to `O=C(CC1CC1)Nc1cccc(C(F)(F)F)c1` [MTFI-5-6C], the “1 h % Repellency, 100 μg/cm^2” value falls from 56% to 50%.

Same assay, conditions: structure-activity analysis of Table 2

For `O=C(Nc1cccc(C(F)(F)F)c1)c1c(F)c(F)c(F)c(F)c1F` [MT2018-0316-01], the “vapor repellency / mortality, statement in words (Example 8)” value was “poor results”.
`Cc1ccccc1C(=O)Nc1cc(C(F)(F)F)cc(C(F)(F)F)c1` [MTFI-3-1E] was tested, and the “vapor repellency / mortality, statement in words (Example 8)” value was “poor results”.

Each molecule was assayed on Aedes aegypti strain Orlando (sensitive) (assay: Topical toxicity (24 hour mortality), Ae. aegypti Orlando). Conditions: topical application, 24 h mortality, female adults, susceptible Orlando strain.
Type: in vivo
Description: (§1) The Aedes aegypti strains Orlando (sensitive) as well as the Puerto Rico (PR, resistant to permethrin) were used. The Anopheles gambiae (G3 sensitive strain, as well as Akron kdr (Akdr) strain, resistant to pyrethroids were also assessed. The larvae were provided by the USDA, Gainesville Fl, and raised in a pan with tap water maintained at 28° C. Larvae were fed a ground liver and yeast mixture, and pupae were placed in emergence cages. Adults were held at 28° C. and provided with cotton balls soaked in 10% sugar water for rearing and for all bioassays.
(§2) Female adults from 3 to 6 days were used for the experiments. The drug was dissolved in ethanol and then applied with a micro-applicator on the thorax, between the legs: 200 nL of drug per female mosquito, with different concentrations of the drug; 10 mosquitos were treated together per concentration per replicate, and put together in a small container with free access to sweet water. Mortality, i.e. no visible movement, was assessed 24 hours after treatment. Every compound was assessed on at least 3 different cohorts of mosquitoes, and the LD50 values and slopes were determined with Probit analysis, corrected with Abbott's formula.

With `O=C(Nc1c(Cl)cc(C(F)(F)F)cc1Cl)C(F)(F)F` [GMR149] the “Ae. aegypti OR LD50” value was 251 ng/mg.

For `CC(C)(C)OC(=O)N(C(=O)C(F)(F)F)c1c(Cl)cc(C(F)(F)F)cc1Cl` [GMR151], the “Ae. aegypti OR LD50” value was greater than 5000 ng/mg.

Each molecule was assayed on Anopheles gambiae G3 sensitive strain (assay: Topical toxicity (24 hour mortality), An. gambiae G3). Conditions: topical application, 24 h mortality, female adults, susceptible strain G3.
Type: in vivo
Description: as §1, §2

`CC(=O)N(C(C)=O)c1cccc(OC(F)(F)F)c1` [GMR159] was tested, and the “An. gambiae G3 LD50” value was greater than 1000 ng/mg.

The molecules below were run on Anopheles gambiae Akron kdr (Akdr) strain, resistant to pyrethroids (assay: Topical toxicity (24 hour mortality), An. gambiae Akdr). Conditions: topical application, 24 h mortality, female adults, pyrethroid-resistant Akdr strain.
Type: in vivo
Description: as §1, §2

In the case of `CC(=O)N(C(C)=O)c1cccc(OC(F)(F)F)c1` [GMR159], the “An. gambiae AKDR LD50” value is reported as roughly 1000 ng/mg.

The molecules below were run on Aedes aegypti mosquitoes, insecticide-susceptible Orlando strain (assay: whole plant or invertebrate). Conditions: 24 h, read-out: 24 h % Mortality, 100 μg/cm^2.

First: O=C(Nc1c(Cl)cc(C(F)(F)F)cc1Cl)C(F)(F)F [GMR149]
Second: O=S(=O)(Nc1c(Cl)cc(C(F)(F)F)cc1Cl)C(F)(F)F [MTFI-5-10A]
The mortality at 100 µg/cm2 of the first is higher: 81% for the first, 0% for the second.

Going from `CC(C)(C)OC(=O)N(C(=O)C(F)(F)F)c1c(Cl)cc(C(F)(F)F)cc1Cl` [GMR151] to `Cc1ccccc1C(=O)Nc1cc(C(F)(F)F)cc(C(F)(F)F)c1` [MTFI-3-1E], the mortality at 100 µg/cm2 rises from 0% to 7%.

Going from `CC(=O)N(C(C)=O)c1cccc(OC(F)(F)F)c1` [GMR159] to `CC(=O)Nc1ccccc1C(F)(F)F` [MTFI-3-2A], the mortality at 100 µg/cm2 rises from 19% to 22%.

Compared with `C#C[C@@H]1[C@@H](C(=O)Nc2cc(F)cc(F)c2)C1(C)C` [GMR180], `O=C(Nc1cc(F)c(F)c(F)c1F)C(F)F` [MTFI-5-4A] is lower in mortality at 100 µg/cm2: 14.3% for the first, 0% for the second.

`O=C(Nc1ccc(F)cc1)C(F)(F)Sc1ccc(F)cc1` [GMR196] and `CC(SC(F)(F)F)C(=O)Nc1ccc(F)cc1` (centres unmarked) [GMR197] are the same in mortality at 100 µg/cm2: 0% for the first, 0% for the second.

Compared with `O=C(CCSC(F)(F)F)Nc1ccc(F)cc1` [GMR198], `C=CCCC(=O)Nc1ccccc1C(F)(F)F` [MTFI-5-5D] is higher in mortality at 100 µg/cm2: 0% for the first, 6% for the second.

`O=C(c1c(F)c(F)c(F)c(F)c1F)n1nnc2ccccc21` [MT2018-0314-01] and `O=C(Cc1c(F)c(F)c(F)c(F)c1F)n1nnc2ccccc21` [MT2018-0314-02] are the same in mortality at 100 µg/cm2: 0% for the first, 0% for the second.

`O=C(Nc1cccc(C(F)(F)F)c1)c1c(F)c(F)c(F)c(F)c1F` [MT2018-0316-01] and `O=C(Cc1c(F)c(F)c(F)c(F)c1F)Nc1cccc(C(F)(F)F)c1` [MT2018-0316-02] are the same in mortality at 100 µg/cm2: 0% for the first, 0% for the second.

Compared with `O=C(Nc1ccccc1C(F)(F)F)C(F)(F)C(F)(F)F` [MTFI-2-1B], `O=C(CBr)Nc1ccccc1C(F)(F)F` [MTFI-5-5E] is higher in mortality at 100 µg/cm2: 0% for the first, 60% for the second.

Going from `CCCCCCCCCCC(=O)Nc1ccccc1C(F)(F)F` [MTFI-2-1F] to `CCCCC(=O)Nc1ccccc1CCCC` [MTFI-5-8A], the mortality at 100 µg/cm2 rises from 0% to 6%.

Going from `O=C(Nc1cc(F)c(F)c(F)c1F)C(F)(F)C(F)(F)C(F)(F)F` [MTFI-5-4E] to `O=C(CC1CC1)Nc1cccc(C(F)(F)F)c1` [MTFI-5-6C], the mortality at 100 µg/cm2 falls from 6% to 0%.

From patent publication US20230337677A1, “ARYL AND PYRIDYL AMIDE PESTICIDES AND COMPOSITIONS THEREOF” (University of Florida Research Foundation, Incorporated, priority 2019, published 2023)
